The values below come from BindingDB's records for PubMed 2885406 (University of California, 1987).

“And” between values parts separate entries of the source, which are not always exact repeats. Identical values can stand only once.

The target in this assay is T1, Alpha-2C adrenergic receptor (Rattus norvegicus, UniProt P22086).
T1 sequence (P22086 whole entry): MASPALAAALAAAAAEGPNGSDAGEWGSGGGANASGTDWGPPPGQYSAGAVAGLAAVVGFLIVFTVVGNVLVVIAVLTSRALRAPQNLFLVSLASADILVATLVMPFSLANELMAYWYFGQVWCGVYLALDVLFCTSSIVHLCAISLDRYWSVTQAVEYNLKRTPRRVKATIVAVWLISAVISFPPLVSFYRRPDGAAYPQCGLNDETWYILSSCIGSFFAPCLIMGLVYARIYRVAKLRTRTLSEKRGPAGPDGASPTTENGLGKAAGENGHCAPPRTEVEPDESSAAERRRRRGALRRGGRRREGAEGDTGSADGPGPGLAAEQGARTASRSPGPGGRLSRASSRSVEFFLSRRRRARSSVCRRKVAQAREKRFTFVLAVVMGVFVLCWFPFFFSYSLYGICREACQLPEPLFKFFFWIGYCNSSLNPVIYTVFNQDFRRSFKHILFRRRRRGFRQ

Take `CC(C)(C)[C@]1(O)CCN2C[C@H]3c4ccccc4CCc4cccc(c43)[C@@H]2C1`: the Ki (commonly the dissociation constant of the complex between target and ligand, obtained from inhibition or displacement) is 220 nM and 107 nM.

Consider `COc1ccc(OC)c(C(O)C(C)N)c1` (stereo not given), for which the Ki is above 10000 nM.

For the compound `NCCc1ccc(O)c(O)c1`, the Ki is > 10000 nM and 9990 nM.

`O=C(c1ccc(F)cc1)C1CCN(CCn2c(=O)[nH]c3ccccc3c2=O)CC1` [3-(2-{4-[(4-fluorophenyl)carbonyl]piperidin-1-yl}ethyl)-1,2,3,4-tetrahydroquinazoline-2,4-dione]: the Ki was 2210 nM and 441 nM.

Take `CN1Cc2c(N)cccc2[C@H](c2ccccc2)C1` [(+/-)-2-Methyl-4-phenyl-1,2,3,4-tetrahydro-isoquinolin-8-ylamine]: the Ki is 8500 nM and 4990 nM.

For the compound `C=CCN1CCc2nc(N)sc2CC1` [B-HT 920], the Ki was 152 nM and 62.2 nM.

Take `NC(N)=NN=Cc1c(Cl)cccc1Cl` [Guanabenz]: the Ki is 5.8 nM and 36.7 nM.

Regarding `CCN1CCCC1CNC(=O)c1cc(S(N)(=O)=O)ccc1OC` (stereo not given) [N-[(1-ethylpyrrolidin-2-yl)methyl]-2-methoxy-5-sulfamoylbenzamide], the inhibition constant Ki was 6120 nM and 682 nM.

`NCCc1c[nH]c2ccc(O)cc12` [[3H]-5-HT] gave a Ki above 10000 nM.

Turning to `C[C@H](N)Cc1ccccc1` [beta-aminopropylbenzene], the Ki was 992 nM and 2410 nM.
